Assay results as given in US20220220448A1, “INDUCED HUMAN COLITIC ORGANOIDS” (The Cleveland Clinic Foundation, priority 2019, published 2022).

How the values were obtained:
[1] = tested on: iHUCOs (UC organoids); assay: Repertaxin treatment of iHUCOs in vitro during development from spheroids to organoids (IF, IHC, H&E, in situ hybridization); format: cell-based, human
Text: (§1) FIGS. 6A-U: Repertaxin attenuates the progression of the colitic phenotype in iHUCOs in vitro. (A, B) Representative immunofluorescence co-localization expression of CXCR1 (red) and CXCL8 (green) expressed in epithelium and mesenchyme of iHNO and iHUCO in the absence (A) or presence of repertaxin (B). (C, D) Summarized percentages of cells positive for CXCR1, CXCL8 and both, in the epithelium and mesenchyme of non-IBD and UC iHCOs, after treatment with repertaxin (20 μm) compared to vehicle (Ctrl). (E) Representative H&E of non-IBD and UC organoids in Ctrl compared to repertaxin treated (F). (G, H) Organoid mean diameter and epithelial thickness after 21 days of treatment with repertaxin compared to control. […] (S, T) Quantification of the percentage of the cells in control vs. repertaxin-treated organoids, positive for RhoA in plasma membrane-only (Mem) and cytoplasm (Cyt). […] IHC Scale bar, 40 um. IF Scale bar, 25 um. N=3 each; except for barrier studies, N=1. ns: not significant, **(p<0.01), ***(p<0.001), ****(p<0.0001). The upregulation of the CXCL8 receptor pro-inflammatory interaction in iHUCOs (FIG. 5) led us to study the effect of repertaxin, a small molecule inhibitor of the CXCL8 receptor, on organoids development. In brief, we treated both UC and non-IBD organoids with repertaxin for 21 days, during their development from spheroids to organoids and compared their phenotypic characteristics to vehicle (Ctrl) organoids.

[2] = tested on: UC epithelial barrier (iHUCOs); assay: Epithelial barrier permeability by microinjection of 4 kD dextran, real-time, iHUCOs; format: cell-based, human; details: 4 kDa dextran, 15 hours, treated vs untreated
Text: (§2) FIGS. 6A-U: Repertaxin attenuates the progression of the colitic phenotype in iHUCOs in vitro. (A, B) Representative immunofluorescence co-localization expression of CXCR1 (red) and CXCL8 (green) expressed in epithelium and mesenchyme of iHNO and iHUCO in the absence (A) or presence of repertaxin (B). (C, D) Summarized percentages of cells positive for CXCR1, CXCL8 and both, in the epithelium and mesenchyme of non-IBD and UC iHCOs, after treatment with repertaxin (20 μm) compared to vehicle (Ctrl). (E) Representative H&E of non-IBD and UC organoids in Ctrl compared to repertaxin treated (F). (G, H) Organoid mean diameter and epithelial thickness after 21 days of treatment with repertaxin compared to control. […] (S, T) Quantification of the percentage of the cells in control vs. repertaxin-treated organoids, positive for RhoA in plasma membrane-only (Mem) and cytoplasm (Cyt). […] IHC Scale bar, 40 um. IF Scale bar, 25 um. N=3 each; except for barrier studies, N=1. ns: not significant, **(p<0.01), ***(p<0.001), ****(p<0.0001). Moreover, to functionally confirm the adherens vs. tight junction signature in UC compared to non-IBD organoids, we used the recently described microinjection technique by Hill et al. to measure and compare the epithelial barrier permeability for both UC and non-IBD organoids in real-time. […]

[3] = tested on: iHNOs (non-IBD organoids); assay: Repertaxin treatment of iHNOs in vitro during development from spheroids to organoids (IF, IHC, H&E); format: cell-based, human
Text: as §1

[4] = tested on: epithelial barrier of non-IBD organoids (iHNOs); assay: Epithelial barrier permeability by microinjection of 4 kD dextran, real-time, iHNOs; format: cell-based, human; details: 4 kDa dextran, 15 hours, treated vs untreated
Text: as §2

[5] = tested on: iHUCOs; assay: Repertaxin in vivo: UC spheroids in TS-HA hydrogel beads implanted subcutaneously in NSG mice
Text: (§3) FIGS. 7A-U: Repertaxin attenuates the progression of the colitic phenotype in iHUCOs in vivo. (A) Schematic representation of repertaxin study in vivo; spheroids encapsulated in TS-HA hydrogel beads were implanted subcutaneously in the dorsal flanks of immunocompromised NSG mice receiving daily injections of repertaxin vs. PBS (21 days). (B, C) Representative immunofluorescence dual-staining of CXCR1 (red) and CXCL8 (green) expressed in epithelium and mesenchyme of iHNO and iHUCO in Ctrl (B) or repertaxin-treated (C). (D, E) Summarized percentages of cells positive for CXCR1, CXCL8 and both, in the epithelium and mesenchyme of non-IBD and UC organoids, after treatment with repertaxin (20 mg/kg) compared to PBS (Ctrl). (F-G) Representative H&E of non-IBD and UC organoids harvested after 21 days for control (F) and repertaxin treatment (G). (H, I) Mean organoid diameter and epithelial thickness after 21 days of repertaxin treatment vs. Ctrl. […] Results reported for the plasma membrane only (Mem), and cytoplasm+nucleus (Cyt+Nuc) cellular compartments. (R, S) Representative immunohistochemistry of RhoA, highlighting the effect of repertaxin on the cellular localization of the protein in plasma membrane only (Mem), and cytoplasm (Cyt) compartments. (T, U) Summarized percentages of cells expressing RhoA in Ctrl vs. repertaxin-treated organoids for plasma membrane-only (Mem) and cytoplasm (Cyt). IHC Scale bar, 40 um. IF Scale bar, 25 um. N=3 each. ns=not significant, *(p<0.05), **(p<0.01), ***(p<0.001), ****(p<0.0001). […] To test the significance of our repertaxin observations in vivo, we studied the effect of repertaxin on the developmental progression of spheroids to organoids, implanted subcutaneously in the dorsal flank of NSG mice (FIG. 7A, STAR Methods). In brief, we encapsulated the spheroids in TS-HA hydrogel beads and implanted the beads subcutaneously. Mice were then treated daily for 21 days with either 20 mg/kg repertaxin or PBS (control). The rate of growth was measured twice per week with calipers, and the volume calculated (STAR Methods).

[6] = tested on: iHNOs; assay: Repertaxin in vivo: non-IBD spheroids in TS-HA hydrogel beads implanted subcutaneously in NSG mice
Text: as §3

[7] = UC organoids, IHC, repertaxin vs control
[8] = iHUCOs epithelium, IHC, repertaxin vs control
[9] = iHUCOs, 21 days repertaxin vs control
[10] = iHUCOs, repertaxin (20 μm), 21 days, vs control
[11] = iHUCOs, repertaxin (20 μm), 21 days, vs vehicle (Ctrl), average
[12] = iHNOs, IHC, repertaxin vs control
[13] = non-IBD organoids, 21 days repertaxin vs control
[14] = non-IBD organoids, IHC, repertaxin vs control
[15] = non-IBD organoids, repertaxin (20 μm), 21 days, vs control
[16] = UC organoids, 20 mg/kg daily, 21 days, vs PBS
[17] = iHUCOs, 20 mg/kg daily, 21 days, vs PBS
[18] = iHUCOs, IHC, vs untreated control
[19] = non-IBD organoids, 20 mg/kg daily, 21 days, vs PBS

CC(C)Cc1ccc([C@@H](C)C(=O)NS(C)(=O)=O)cc1 [repertaxin]
cytoplasmic and nuclear expression of E-cadherin [1, 7]: greater | cytoplasmic and nuclear expression of β-catenin [1, 7]: greater | RhoA expression in cytoplasm [1, 8]: less RhoA expression | less RhoA expression on the membrane (activated RhoA) [1, 8]: ~5 fold | epithelial thickness [1, 9]: less thick epithelium | organoid size [1, 9]: significantly lower size | Claudin-1 expression ([1]; iHUCOs, IHC, repertaxin vs control): significantly more expression | CXCL8 expression [1, 10]: significantly lower than control | percentage of co-expression of CXCL8/CXCR1 [1, 10]: significantly lower than control | lower expression of CXCR1 in the epithelium [1, 11]: 7 fold | lower expression of CXCR1 in the mesenchyme [1, 11]: 9 fold | expression pattern of p-YAP1 ([1]; treated iHUCOs, IHC): more closely resembled the expression patterns in iHNOs | expression pattern of LGR5 ([1]; treated iHUCOs, in situ hybridization): more closely resembled the expression patterns in iHNOs | rate of permeability of the epithelial barrier (dye release) [2]: significantly decreased | real-time measurement timepoints with significantly decreased permeability [2]: 50% | Ki67 expression in the epithelium (proliferation) [3, 12]: significantly lower expression | RhoA expression [3, 12]: did not significantly affect | Claudin-1 expression ([3]; iHNOs, IHC, treated vs control): no significant changes | epithelial thickness [3, 13]: did not change | organoid size [3, 13]: significantly smaller organoids | cells with expression of E-cadherin limited to the plasma membrane [3, 14]: significantly more cells with limited expression | cells with expression of β-catenin limited to the plasma membrane [3, 14]: significantly more cells with limited expression | cytoplasmic and nuclear expression of E-cadherin [3, 14]: lower cytoplasmic and nuclear expression | cytoplasmic and nuclear expression of β-catenin [3, 14]: lower cytoplasmic and nuclear expression | CXCL8 expression [3, 15]: significantly less | CXCR1 expression [3, 15]: significantly less | epithelial permeability (dye release) [4]: did not have a significant effect | overall calculated volume of implanted beads ([5]; 20 mg/kg repertaxin daily for 21 days vs PBS, groups (UC and non-IBD) not told apart): significantly greater in the PBS than in the repertaxin-treated groups | CXCL8 expression [5, 16]: less | CXCR1 expression [5, 16]: less | Ki67 proliferation rate in the epithelium [5, 17]: significantly reduced | epithelial thickness [5, 17]: significant less thick epithelium | Claudin-1 expression ([5]; iHUCOs, IHC, vs control): significantly increased | cytoplasmic expression of RhoA ([5]; iHUCOs, IHC, vs control): strongly decreased | membranous expression of RhoA ([5]; iHUCOs, IHC, vs control): strongly decreased | cytoplasmic and nuclear expression of E-cadherin [5, 18]: greater cytoplasmic and nuclear expression | cytoplasmic and nuclear expression of β-catenin [5, 18]: greater cytoplasmic and nuclear expression | epithelial thickness ([6]; iHNOs, 20 mg/kg daily, 21 days, vs PBS): no significant effect | E-cadherin expression pattern ([6]; iHNOs, IHC, vs control): higher rate of expression in membrane | RhoA expression ([6]; iHNOs, IHC, vs control): did not have a significant effect | β-catenin expression pattern ([6]; iHNOs, IHC, vs control): higher rate of expression in membrane | Ki67 proliferation rate in the epithelium ([6]; non-IBD epithelium, 20 mg/kg daily, 21 days, vs PBS): did not have a significant effect | CXCL8 expression [6, 19]: less | CXCR1 expression [6, 19]: less | Claudin-1 expression ([6]; non-IBD organoids, IHC, vs control): did not change
